Data: patent US8263595B2, “Triazolopyridine compounds and their use as ask inhibitors” (Merck Serono SA, priority 2007, dated 2012)

What was measured:
human recombinant ASK1 = molecular target: T1, human recombinant ASK1 (Homo sapiens, UniProt Q99683); assay: Enzyme inhibition assay (in vitro ASK1 assay), luciferase-based measurement of remaining ATP; type: biochemical; details: human recombinant ASK1, MBP and ATP as substrates, 180 minutes at 30° C.; triplicates on at least 2 separate occasions
T1 sequence (Q99683 1-1374): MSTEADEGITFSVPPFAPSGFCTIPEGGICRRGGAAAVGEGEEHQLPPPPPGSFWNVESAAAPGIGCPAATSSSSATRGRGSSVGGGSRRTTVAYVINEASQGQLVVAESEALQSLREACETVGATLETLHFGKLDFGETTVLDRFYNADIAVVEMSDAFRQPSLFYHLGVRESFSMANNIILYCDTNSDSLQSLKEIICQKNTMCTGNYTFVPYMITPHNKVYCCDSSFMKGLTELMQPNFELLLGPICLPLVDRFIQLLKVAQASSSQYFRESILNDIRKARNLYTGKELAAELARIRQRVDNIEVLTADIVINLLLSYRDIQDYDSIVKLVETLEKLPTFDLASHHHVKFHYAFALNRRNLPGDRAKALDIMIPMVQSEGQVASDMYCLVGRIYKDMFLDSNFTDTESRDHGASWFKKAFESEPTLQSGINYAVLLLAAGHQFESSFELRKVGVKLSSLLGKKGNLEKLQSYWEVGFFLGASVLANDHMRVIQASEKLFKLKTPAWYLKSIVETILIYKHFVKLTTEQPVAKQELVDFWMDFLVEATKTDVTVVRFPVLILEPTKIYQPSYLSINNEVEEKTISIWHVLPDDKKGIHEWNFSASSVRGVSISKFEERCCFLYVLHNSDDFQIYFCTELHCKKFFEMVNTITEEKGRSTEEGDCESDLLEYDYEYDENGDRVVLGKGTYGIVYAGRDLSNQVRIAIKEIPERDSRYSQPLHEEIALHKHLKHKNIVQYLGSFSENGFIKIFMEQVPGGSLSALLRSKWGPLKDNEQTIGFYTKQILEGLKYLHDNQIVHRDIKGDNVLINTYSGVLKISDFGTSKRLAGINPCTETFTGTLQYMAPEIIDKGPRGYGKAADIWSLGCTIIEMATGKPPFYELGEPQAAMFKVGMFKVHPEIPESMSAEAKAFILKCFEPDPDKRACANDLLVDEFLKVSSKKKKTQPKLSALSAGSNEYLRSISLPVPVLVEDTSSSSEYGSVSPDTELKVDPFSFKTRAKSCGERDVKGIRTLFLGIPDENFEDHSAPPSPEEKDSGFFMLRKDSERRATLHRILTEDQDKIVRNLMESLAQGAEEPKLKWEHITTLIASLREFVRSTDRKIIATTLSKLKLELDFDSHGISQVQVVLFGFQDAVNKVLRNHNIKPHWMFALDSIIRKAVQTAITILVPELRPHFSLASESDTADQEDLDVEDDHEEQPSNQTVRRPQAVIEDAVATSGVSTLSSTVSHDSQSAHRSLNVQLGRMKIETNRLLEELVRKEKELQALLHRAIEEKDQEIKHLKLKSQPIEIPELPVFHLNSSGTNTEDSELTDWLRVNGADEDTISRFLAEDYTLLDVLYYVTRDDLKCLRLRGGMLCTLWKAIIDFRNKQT
Method: Assays were performed in a 384 well plate (Corning, #3654) format, using the human recombinant ASK1 as an enzyme and MBP (myelin basic protein, Upstate/Millipore, #13-104) with ATP as substrates. Assay read out was the measurement of the amount of ATP remaining after stopping the reaction, using a luciferase-based kit from Cambrex.
Compounds to be tested were dissolved in 100% DMSO at a concentration of 10 mM. Subsequent dilutions were performed in 100% DMSO using a Biomek FX Workstation. 5 μL of diluted compound or vehicle (6% DMSO) was distributed to a 384 well plate. 5 μL of substrates (ATP 7.5 μM, MBP 450 ng/μL) diluted in ASK1 buffer (20 mM Tris HCl pH 7.4, 0.001% Brij35, 0.01% BSA, 5 mM MgCl2, 1 mM DL-Dithiothreitol) were added, followed by 5 μL at of human recombinant ASK1 enzyme (22.5 ng/mL) diluted in ASK1 buffer in order to start the reaction. The reaction ran for 180 minutes at 30° C. before the addition of 5 μL of stop solution (Cambrex, #LT23-231). 10 μL of Pklight ATP detection reagent (Cambrex #LT23-233) were added. After 120 min of incubation, luminescence was measured on a Perkin-Elmer Victor 2 spectrofluorimeter. The percentage of inhibition relative to the fluorescence observed in the presence of solvent (1% DMSO) alone was determined. The IC50 values for inhibition were determined in triplicates on at least 2 separate occasions.

LPS-induced TNFα release = assay: Lipopolysaccharide (LPS)-induced TNFα release assay in mice; type: in vivo; details: 30 mg/kg po, female C3H mice, given 15 min prior to LPS 0.3 mg/kg ip, blood sampled 90 min later
Method: The administration of LPS induces the release of TNFα from white blood cells (monocytes, macrophages, Kupffer cells, etc) and endothelial cells into the blood. This is a model for cytokine release that occurs during inflammation. […] ASK1 mediates free radical pathways. Based on this mechanism, the blockade of ASK1 by specific inhibitors should reduce LPS-induced TNFα release in mice.
Female C3H mice (Elevage Janvier) (8 week old), received E. Coli's LPS (O111:B4, Sigma, 0.3 mg/kg, ip) after the administration of the test articles. Ninety min later, the animals were sacrificed and the blood was sampled. Plasma levels of TNFα were determined in serum using an ELISA kit (R&D). LPS was solubilized in sterile saline.
The test articles were suspended in 0.5% CMC/0.25% Tween 20 and administered 15 min prior the challenge of LPS by oral route at the doses of 3 to 30 mg/kg. Control animals received the vehicle. In time course experiments, the test articles were administered 15 min to 4 hrs prior the challenge of LPS. Dexamethasone (0.1 mg/kg, po) was used as reference.
The animals were divided into 5 groups (6 mice each group):
Inhibition of TNFα release was calculated as follows: % inhibition=100*([…])) Where TNFα 1=TNFα concentration in group 1 (pg/ml), TNFα X=TNFα concentration in group X (pg/ml).

| Compound | IC50 (human recombinant ASK1) [nM] | % inhibition of LPS-induced TNFα release in mice (LPS-induced TNFα release) [%] |
| --- | --- | --- |
| O=C(Nc1nc2cccc(-c3ccoc3)n2n1)c1cccnc1 [Example 2, N-[5-(3-furyl)[1,2,4]triazolo[1,5-a]pyridin-2-yl]nicotinamide] | 700 ± 200 | 49 ± 8 |
| CC(C)(C)OC(=O)NCc1ccc(C(=O)Nc2nc3cccc(-c4ccoc4)n3n2)cc1 [Example 52, tert-butyl[4-({[5-(3-furyl)[1,2,4]triazolo[1,5-a]pyridin-2-yl]amino}carbonyl)benzyl]carbamate] | 1700 ± 200 |  |
| O=C(Nc1nc2cc(Cl)cc(NC3CCC3)n2n1)c1cccnc1 [Example 118, N-[7-chloro-5-(cyclobutylamino)[1,2,4]triazolo[1,5-a]pyridin-2-yl]nicotinamide] | 87 ± 6 |  |
| O=C(Nc1nc2cccc(NCc3ccco3)n2n1)c1ccccc1 [Example 44, N-{5-[(2-furylmethyl)amino][1,2,4]triazolo[1,5-a]pyridin-2-yl}benzamide] | 6900 ± 50 |  |
| O=C(Nc1nc2cccc(SC3CCCCC3)n2n1)c1cccnc1 [Example 83, N-[5-(cyclohexylthio)[1,2,4]triazolo[1,5-a]pyridin-2-yl]nicotinamide] | 1900 ± 200 |  |
| O=C(Nc1nc2cccc(-c3ccc[nH]3)n2n1)C1CCCC1 [Example 10, N-[5-(1H-pyrrol-2-yl)[1,2,4]triazolo[1,5-a]pyridin-2-yl]cyclopentanecarboxamide] | 16000 ± 4000 |  |
| COC(=O)[C@H]1CC[C@H](Nc2cc(C(F)(F)F)cc3nc(NC(=O)c4cccnc4)nn23)CC1 [Example 90, methyl trans-4-{[2-[(pyridin-3-ylcarbonyl)amino]-7-(trifluoromethyl)[1,2,4]triazolo[1,5-a]pyridin-5-yl]amino}cyclohexanecarboxylate] | 700 ± 100 |  |
| O=C(Nc1nc2cccc(NC3CC3)n2n1)c1cccnc1 [Example 30, N-[5-(cyclopropylamino)[1,2,4]triazolo[1,5-a]pyridin-2-yl]nicotinamide] | 1100 ± 500 | 43 ± 3 |
| CN(C)Cc1ccc(C(=O)Nc2nc3cc(C(F)(F)F)cc(NC4CC4)n3n2)cc1 [Example 140, N-[5-(cyclopropylamino)-7-(trifluoromethyl)[1,2,4]triazolo[1,5-a]pyridin-2-yl]-4-[(dimethylamino)methyl]benzamide] | 1140 |  |
